How the values were obtained:
[1] = system: breast cancer; assay: Clinical observation and typical clinical cases of breast cancer patients; type: in vivo, human; settings: clinical case 1, Abemaciclib and Fulvestrant for 3 days
[2] = system: 4T1 breast cancer cells; assay: 4T1 triple-negative mice breast cancer model, second batch, DTX with or without medium dose preparation, 31 days; type: in vivo, BALB/c mice
Protocol: after the required amount of 4T1 breast cancer cells were cultured, the cells were resuspended in phosphate-buffered saline (PBS) after trypsin digestion and centrifugation, and the cells were counted and diluted to a cell concentration of 1×10^7 cells/mL. All mice were intraperitoneally injected with 50 mg/kg pentobarbital sodium and 0.5% lidocaine solution for infiltration anesthesia, under anesthesia, 0.1 mL cell suspension of each mouse was inoculated in the third pair of mammary fat pads on the left side, the cotton swab was pressed for a moment to avoid cell outflow after inoculation. During the inoculation process, the pipette blows the cell suspension to ensure uniform suspension.
experimental BALB/c mice were divided into 3 groups with 10 mice in each group. They were the PBS group, chemotherapy […] (DTX) group, and DTX+medium dose (0.85 mg/kg) group.
The mice were administered by gavage on the second day after tumor implantation, the DTX group was intraperitoneally injected with 0.2 mL of DTX, once a week. The DTX+medium dose group was intraperitoneally injected with DTX at the first and fourth weeks of inoculation and combined with the medium dose of Antler-Ginseng compound preparation. The tumor volume (L×W2×0.4) and body weight of mice were measured on the 7th day after inoculation. For a total of 31 days. Flow cytometry analysis: three mice in each group of PBS group and DTX+medium dose group were selected randomly for flow cytometry analysis of tumor tissue and spleen. All statistical analyses were performed by using GraphPad Prism 9.0, P<0.05 was considered statistically significant.
6. The Antler-Ginseng compound preparation reduces the course of chemotherapy and the frequency of medication, and the anti-tumor effect is better than the anti-tumor effect of single-agent chemotherapy. […]

| increase of transaminase (liver function) [1] [times] | Compound | body weight of the experimental animals ([2]; DTX once a week, combination with halved chemotherapy frequency plus medium dose preparation) | tumor volume compared with the PBS group ([2]; P<0.05) | tumor weight compared with the PBS group ([2]; P<0.05) |
| --- | --- | --- | --- | --- |
| 10 | CCN1CCN(Cc2ccc(Nc3ncc(F)c(-c4cc(F)c5nc(C)n(C(C)C)c5c4)n3)nc2)CC1 [Abemaciclib] | – | – | – |
| – | CC(=O)O[C@@]12CO[C@@H]1C[C@H](O)[C@@]1(C)C(=O)[C@H](O)C3=C(C)[C@@H](OC(=O)[C@H](O)[C@@H](NC(=O)OC(C)(C)C)c4ccccc4)C[C@@](O)([C@@H](OC(=O)c4ccccc4)[C@H]21)C3(C)C [DTX, docetaxel] | significantly reduced | significantly lower | significantly lower |

Reference: US12721875B2, “Drug for treatment of breast cancer with antler and ginseng as sovereign drug and preparation method and application thereof” (Jilin University, priority 2024, dated 2026)
